Read-outs that look alike come from different tables or passages of the source.
Molecular target: single-stranded miR-145
Assay: Isothermal titration calorimetry (ITC), Waters Nano-ITC
Format: binding
Conditions: for Kd: Multiple Sites model
Description: Isothermal titration calorimetry (ITC) utilizes the principle of power compensation to accurately obtain the enthalpy change of intermolecular interactions within a broad concentration range in the system through a single concentration scan. It measures the heat change during binding and provides the complete thermodynamic characteristics of nucleic acid-ligand interactions. Quantifying the thermodynamic properties and energy of the complex is essential for analyzing the molecular basis of the interaction between the microRNA miR-145 and the compound. The present invention uses the Waters Nano-ITC calorimeter to in vitro verify the nucleic acid-small molecule interactions.
The experimental process involves placing 300µL of a 50µM single-stranded miR-145 solution in a temperaturecontrolled sample chamber, and using small molecule A-3-6 (i.e., the 2-phenyl-N-(1H-pyrrolo[2,3-c]pyridine-5-yl)acetamide obtained in Example 9) as the ligand in a 50µL, 500µM concentration, which is gradually injected (or titrated) into the sample chamber. The heat change is measured by comparing the sample chamber with a reference chamber, showing either an endothermic or exothermic peak. The interaction pattern between the two reactants is fitted using the software provided by the instrument, and it directly calculates the reaction binding enthalpy (ΔH, kJ/mol), reaction binding entropy (ΔS, J/(mol·K)), number of binding sites (n), and binding equilibrium constant (Ka, M), obtaining the kinetic data. […] The calculated number of binding sites (nSite) for A-3-6 with miR-145 solution are n1=3 and n2=1.8, with Kd1=7.017E-8 and Kd2=7.544E-9, ΔH1=-69.08 and ΔH2=-137.2, ΔS1=-9.474E1 and ΔS2=-3.048E2.

For `O=C(Cc1ccccc1)Nc1cc2cc[nH]c2cn1` [Compound A-3-6, 2-Phenyl-N-(1H-Pyrrolo[2,3-c]pyridin-5-yl)acetamide], the Kd (site 1, read-out: Kd1) was 70.2 nM, the Kd (site 2, read-out: Kd2) was 7.54 nM and the “binding to the target single-stranded miR-145” value (conclusion from the ITC experiment) was “can specifically bind”.
